Measured values published in publication PMC6756013, “B591, a novel specific pan-PI3K inhibitor, preferentially targets cancer stem cells” (Oncogene, 2019).

Experiments:
[1] = test system: phosphorylation of Akt and ERK in RD cells; experiment: Immunoblotting of feedback activation of Akt and ERK; assay type: cell-based, human; details: up to 24 h, B591 10 μM
Description: Fig. 2 B591 inhibits PI3K/Akt pathway in multiple cancer cell lines. a Representative images of Akt1 redistribution in IGF-1-treated cells in the absence or presence of B591. Scale bar represents 10 μm. Arrows indicate IGF-1-mediated membrane translocation detected by the image analysis algorithm. b Inhibition of mTORC1 and mTORC2 signaling in multiple cancer cell lines, exposed for 5 h to increasing concentrations of B591. c HepG2 cells were treated with DMSO or 20 μM of B591 for 5 h. Immunofluorescence (red) intensity reflects eIF4E subcellular distribution. Cells were visualized with high content reader. Representative images are shown, and scale bar represents 50 μm. d Nuclear-to-cytoplasmic ratio of eIF4E in five cancer cell lines was determined via high content reader. e The phosphorylation of AKT and ERK was determined by immunoblotting in RD cells in the presence of 10 μM of B591 after indicated time of exposure. f Inhibition of the phosphorylation of AKT and ERK in RD cells treated with B591, PI-103 or Rapamycin for 24 h was determined by immunoblotting
Despite a significant efficacy in preclinical models, the clinical tumor response to mTORC1 inhibitors, such as rapalogs, is modest. […]

[2] = test system: MDA-MB-231 and SUM-159PT monolayer and mammosphere cells; experiment: Apoptosis of monolayer versus mammosphere cells (PE-Annexin V/7-AAD); assay type: cell-based, human; details: 48 h
Description: (§1) Cells were treated with indicated agents for 48 h, and cells were harvested and processed for apoptosis assay using the PE-Annexin V/7-AAD Apoptosis Detection Kit. d Representative flow cytometry plots of apoptosis inducing activity of B591 (10 μM) and paclitaxel (10 nM) on monolayer and mammosphere MDA-MB-231 cells. e B591 preferentially targeted CD44^high/CD24^low cells. Cells were treated with B591 or paclitaxel for 2 days. Following a 4-day recovery period, cells were co-stained with CD44 and CD24 antibodies and subjected to FACS analysis. Representative flow cytometry plots show the effect of B591 on CD44^high/CD24^low population in MDA-MB-231 cells in vitro. f B591 decreased mammosphere forming efficiency. Primary MDA-MB-231 mammospheres were treated with B591 or paclitaxel for 48 h. Results of the secondary mammosphere-formation assay are shown. Scale bar represents 40 μm. g B591 decreased the expression of CSC markers in MDA-MB-231 cells. Cells were treated with B591 or paclitaxel for 2 days. […] They label a gated population in plots with axes CD44 and CD24. / Panel E: DMSO is the vehicle control. Its printed value is included all the same.
Supplementary Fig. S10. B591 preferentially targets CSCs. […] Following a 4-day recovery period, the expression of CSC markers was analyzed with western blot analysis.

[3] = test system: SUM-159PT orthotopic xenografts; experiment: Tumor recurrence study in SUM-159PT xenografts; assay type: in vivo, NOD/SCID mice; details: paclitaxel 4 mg/kg, B591 10 mg/kg, i.p., 2 weeks, then 3 weeks recurrence
Description: (§2) Fig. 6 B591 reduces breast tumor metastasis and recurrence. a Representative images show the effect of B591 (8 mg/kg) on lung metastasis of 4T1 cells, and data from six mice were plotted. b SUM-159PT cells were respectively treated with the indicated agents (8 nM Paclitaxel, 8 nM Paclitaxel plus 5 μM B591) for 24 h, the cells were then cultured for mammospheres. Representative images were shown, and data from two independent experiments were plotted. c–f SUM-159PT xenografts (n = 7) were treated with 4 mg/kg Paclitaxel, or 10 mg/kg B591, or both for 2 weeks, then ended the treatment and waited for tumor recurrence. Tumor volume (c) and body weight (d) were measured every 2 days after treatment, and tumors were photographed (e) and weighted (f) at the end of the experiment. ^*p < 0.05, ^**p < 0.01 versus indicated groups
In the tumor recurrence study, orthotopic xenografts were established with 5 × 10^6 SUM-159PT cells. When tumor volume reached about 50 mm^3, mice were randomly divided into four groups for treatment with vehicle, 4 mg/kg Paclitaxel, 10 mg/kg B591, and combination of 4 mg/kg Paclitaxel plus 10 mg/kg B591 (i.p.). Treatment was stopped after 2 weeks, and the tumors were allowed for recurrence for 3 weeks. Tumor volume and the body weight of mice were measured during the experiments. In the end of treatment, the mice were killed, and the tumor tissues were dissected and weighted.

SUM-159PT cells = experiment: Mammosphere formation after paclitaxel pre-treatment; assay type: cell-based; details: 8 nM Paclitaxel or 8 nM Paclitaxel plus 5 μM B591 for 24 h
Description: as §2
Based on the finding that B591 preferentially targets CSCs, we supposed that by eliminating the breast CSCs, B591 might delay breast tumor recurrence after initial treatment with chemotherapy drugs. Paclitaxel is a first-line chemotherapeutic agent used for breast cancer therapy. SUM-159PT cells were pre-treated with paclitaxel, and then the cells remaining alive were cultured for mammospheres.

[4] = test system: MDA-MB-231 and SUM-159PT monolayer and mammosphere cells; experiment: Proliferation inhibition of monolayer versus mammosphere cells; assay type: cell-based, human
Description: The proliferation inhibitory activities of B591 were compared between monolayer and mammosphere cells.
as §1

[5] = test system: PI3K/Akt signaling in MDA-MB-231 and SUM-159PT cells; experiment: Western blot of PI3K/mTOR signaling (Supplementary Fig. S5A); details: 5 h
[6] = test system: MDA-MB-231 and SUM-159PT mammospheres; experiment: Secondary mammosphere-formation assay; assay type: cell-based, human; details: primary mammospheres treated 48 h, then passaged
Description: Cells were treated with indicated agents for 48 h, and cells were harvested and processed for apoptosis assay using the PE-Annexin V/7-AAD Apoptosis Detection Kit. d Representative flow cytometry plots of apoptosis inducing activity of B591 (10 μM) and paclitaxel (10 nM) on monolayer and mammosphere MDA-MB-231 cells. e B591 preferentially targeted CD44^high/CD24^low cells. Cells were treated with B591 or paclitaxel for 2 days. Following a 4-day recovery period, cells were co-stained with CD44 and CD24 antibodies and subjected to FACS analysis. Representative flow cytometry plots show the effect of B591 on CD44^high/CD24^low population in MDA-MB-231 cells in vitro. f B591 decreased mammosphere forming efficiency. Primary MDA-MB-231 mammospheres were treated with B591 or paclitaxel for 48 h. Results of the secondary mammosphere-formation assay are shown. Scale bar represents 40 μm. g B591 decreased the expression of CSC markers in MDA-MB-231 cells. Cells were treated with B591 or paclitaxel for 2 days. […]
In the mammosphere assay, MDA-MB-231 (Fig. 3f) and SUM-159PT (Supplementary Fig. S10D) cells were treated with B591 or paclitaxel, and the mammospheres were collected and subsequently passaged. Secondary Mammosphere-forming activity was determined, which reflects the self-renewal capability of CSCs. […]

Compound | Phosphorylation of Akt and ERK [1] | Apoptosis induction, mammosphere versus monolayer populations [2] | Tumor growth and regrowth after end of treatment [3] | Formation of mammospheres / paclitaxel-enriched CSCs (SUM-159PT cells) | Proliferation inhibitory activity, mammosphere versus monolayer cells [4] | Effect on PI3K/Akt, mTORC1 and mTORC2 signaling [5] | Secondary mammosphere-forming ability [6]
CO[C@H]1C[C@@H]2CC[C@@H](C)[C@@](O)(O2)C(=O)C(=O)N2CCCC[C@H]2C(=O)O[C@H]([C@H](C)C[C@@H]2CC[C@@H](O)[C@H](OC)C2)CC(=O)[C@H](C)/C=C(\C)[C@@H](O)[C@@H](OC)C(=O)[C@H](C)C[C@H](C)/C=C/C=C/C=C/1C [rapamycin, reference compound] | induced a hyper-activation of Akt and increased ERK phosphorylation |  |  |  |  |  | 
CC(=O)O[C@H]1C(=O)[C@@]2(C)[C@H]([C@H](OC(=O)c3ccccc3)[C@]3(O)C[C@H](OC(=O)[C@H](O)[C@@H](NC(=O)c4ccccc4)c4ccccc4)C(C)=C1C3(C)C)[C@]1(OC(C)=O)CO[C@@H]1C[C@@H]2O [paclitaxel, reference compound] |  | induced less apoptosis of mammosphere populations than monolayer populations | induced initial tumor remission, but these tumors regrew quickly after termination of paclitaxel therapy | increased the formation of mammospheres | mammosphere cells were resistant | did not show any effect | increased
Oc1cccc(-c2nc(N3CCOCC3)c3oc4ncccc4c3n2)c1 [PI-103] |  |  |  |  |  | inhibited PI3K downstream mTORC1 and mTORC2 signaling | 
